In patent US20240116946A1 (Gilead Sciences, Inc., priority 2022, published 2024):
Where two headings read alike, the source gives them in different places.

How the values were obtained:
[1] = biological target: recombinant SARS-CoV-2 Main protease (Mpro) (Severe acute respiratory syndrome coronavirus 2 (2019-nCoV) (SARS-CoV-2), UniProt P0DTD1); experiment: Cov Mpro Biochemical IC50 Assay; details: recombinant SARS-CoV-2 Mpro 7.5 nM, fluorogenic peptide substrate 40 μM; read-out: MPro IC50
SARS-CoV-2-NLuc = experiment: microbe, parasite or virus in culture; format: cell-based, SARS Coronavirus 2
[2] = Severe acute respiratory syndrome coronavirus, 48 h, read-out: MPro EC50
[3] = Severe acute respiratory syndrome coronavirus, 48 h; read-out: MPro EC50

Structure (SMILES) | IC50 [1] [nM] | EC50 (SARS-CoV-2-NLuc; [2]) [nM] | EC50 (SARS-CoV-2-NLuc; [3]) [nM]
Cn1ncc2cncc(-n3c(=O)c4sc(-c5cc(F)c(F)cc5C#N)cc4n(CCC#N)c3=O)c21 [Example 794] | 31.5 | > 1000 | –
COc1cc(C#N)c(-c2cc3c(s2)c(=O)n(-c2cncc4cnn(C)c24)c(=O)n3CCC#N)cc1F [Example 795] | 20 | 86.7 | –
Cn1nnc2cncc(-n3c(=O)c4sc(-c5cc(F)c(F)cc5Cl)cc4n(CCC#N)c3=O)c21 [Example 796] | 40.5 | – | 124
Cc1c2c(-n3c(=O)c4sc(-c5ccc(F)cc5Cl)cc4n(CCC#N)c3=O)cncc2nn1C [Example 797, 3-(6-(2-chloro-4-fluorophenyl)-3-(2,3-dimethyl-2H-pyrazolo[3,4-c]pyridin-4-yl)-2,4-dioxo-3,4-dihydrothieno[3,2-d]pyrimidin-1(2H)-yl)propanenitrile] | 34.6 | 108 | –
Cc1c2c(-n3c(=O)c4sc(-c5cc(F)c(F)cc5Cl)cc4n(CCC#N)c3=O)cncc2nn1C [Example 798] | 38.7 | – | 137
COc1cc(-c2cc3c(s2)c(=O)n(-c2cccnc2)c(=O)n3CCC#N)c(C#N)cc1F [Example 799] | 10.3 | – | 42.9
N#CCCn1c(=O)n(-c2cccnc2)c(=O)c2sc(-c3ccc(F)cc3Cl)cc21 [Example 800] | 32.6 | – | 114
N#CCCn1c(=O)n(-c2cccnc2)c(=O)c2sc(-c3ccccc3C#N)cc21 [Example 801] | 60.6 | – | 231
Cc1cncc(-n2c(=O)c3sc(-c4ccccc4C#N)cc3n(CC3(C#N)CC3)c2=O)c1 [Example 802] | 3.02 | – | 7.09
N#CCCn1c(=O)n(-c2cccnc2)c(=O)c2sc(-c3cc(F)c(F)cc3Cl)cc21 [Example 803] | 25.9 | – | 91.5
N#CCCn1c(=O)n(-c2cccnc2)c(=O)c2sc(-c3ccccc3Cl)cc21 [Example 804] | 14 | – | 45
Cc1noc(C)c1-c1cc2[nH]c(=O)n(-c3cncc4cnn(C)c34)c(=O)c2s1 [Example 805] | 701 | – | > 1000
COc1cc(-c2cc3c(s2)c(=O)n(-c2cncc(Cl)c2C)c(=O)n3CCC#N)c(C#N)cc1F [Example 806] | 5.15 | – | 6.99
Cc1c(Cl)cncc1-n1c(=O)c2sc(-c3ccc(F)cc3Cl)cc2n(CCC#N)c1=O [Example 807] | 20.6 | 35 | –
Cc1c(Cl)cncc1-n1c(=O)c2sc(-c3ccc(F)cc3C#N)cc2n(CCC#N)c1=O [Example 808] | 74.5 | – | 183
Cc1ccc(C#N)cc1-c1cc2c(s1)c(=O)n(-c1cncc3cnn(C)c13)c(=O)n2CCC#N [Example 809] | 54.2 | 200 | –
Cc1ccc(C#N)cc1-c1cc2c(s1)c(=O)n(-c1cncc3ccccc13)c(=O)n2CCC#N [Example 810] | 19.8 | – | 86.9
Cn1ncc2cncc(-n3c(=O)c4sc(-c5cc(C#N)ccc5Cl)cc4n(CCC#N)c3=O)c21 [Example 811] | 13.2 | 53.5 | –
COc1cc(-c2cc3c(s2)c(=O)n(-c2cc(C)cnn2)c(=O)n3CCC#N)c(C#N)cc1F [Example 812] | 8.87 | – | 89
Cc1cnnc(-n2c(=O)c3sc(-c4ccccc4C#N)cc3n(CCC#N)c2=O)c1 [Example 813] | 32.5 | – | 362
COc1cncc(-n2c(=O)c3sc(-c4ccccc4C#N)cc3n(CCC#N)c2=O)c1 [Example 814] | 44.6 | – | 134
COc1cnc(Cl)c(-c2cc3c(s2)c(=O)n(-c2cncc(C(F)(F)F)c2)c(=O)n3CCC#N)c1 [Example 815] | 52.4 | – | 180
N#CCCn1c(=O)n(-c2cncc(OC(F)F)c2)c(=O)c2sc(-c3ccccc3C#N)cc21 [Example 816] | 58.1 | – | 342
N#CCCn1c(=O)n(-c2cncc(N3CCOCC3)c2)c(=O)c2sc(-c3ccccc3C#N)cc21 [Example 817] | > 1000 | – | > 1000
N#CCCn1c(=O)n(-c2cncc3ccccc23)c(=O)c2sc(-c3ccccc3Cl)cc21 [Example 818, 3-(6-(2-chlorophenyl)-3-(isoquinolin-4-yl)-2,4-dioxo-3,4-dihydrothieno[3,2-d]pyrimidin-1(2H)-yl)propanenitrile] | 7.61 | 6.21 | –
N#CCCn1c(=O)n(-c2cncc3ccccc23)c(=O)c2sc(-c3ccccc3C#N)cc21 [Example 819, 2-(1-(2-cyanoethyl)-3-(isoquinolin-4-yl)-2,4-dioxo-1,2,3,4-tetrahydrothieno[3,2-d]pyrimidin-6-yl)benzonitrile] | 10.3 | 11.3 | –
COc1cccc(C#N)c1-c1cc2c(s1)c(=O)n(-c1cncc3ccccc13)c(=O)n2CCC#N [Example 820] | 5.73 | 32.9 | –

Structure (SMILES) | IC50 [1] [nM] | EC50 (SARS-CoV-2-NLuc; [2]) [nM] | EC50 (SARS-CoV-2-NLuc; [3]) [nM]
N#CCCn1c(=O)n(-c2cncc3ccccc23)c(=O)c2sc(-c3cc(Cl)ccc3C#N)cc21 [Example 821] | 6.75 | 11.5 | –
Cn1ncc2cncc(-n3c(=O)c4sc(-c5cc(C(F)(F)F)ccc5C#N)cc4n(CCC#N)c3=O)c21 [Example 822] | 96.4 | – | 346
Cc1cc(-c2cc3c(s2)c(=O)n(-c2cncc4ccccc24)c(=O)n3CCC#N)c(C#N)cc1F [Example 823] | 16.3 | 25.7 | –
Cn1ncc2cncc(-n3c(=O)c4sc(-c5ccc(Cl)cc5C#N)cc4n(CCC#N)c3=O)c21 [Example 824] | 22.5 | – | 79.9
Cc1cc(-n2c(=O)c3sc(-c4ccccc4Cl)cc3n(CCC#N)c2=O)cnc1F [Example 825] | 33.9 | 77 | –
N#CCCn1c(=O)n(-c2cncc3ccccc23)c(=O)c2sc(-c3cc(F)c(F)cc3Cl)cc21 [Example 826] | 8.26 | 23.9 | –
N#CCCn1c(=O)n(-c2cncc3ccccc23)c(=O)c2sc(-c3ccc(F)cc3Cl)cc21 [Example 827] | 10.2 | 10.4 | –
N#CCCn1c(=O)n(-c2cnccn2)c(=O)c2sc(-c3ccccc3Cl)cc21 [Example 828] | 94.1 | 458 | –
N#CCCn1c(=O)n(-c2cnccn2)c(=O)c2sc(-c3ccc(F)cc3C#N)cc21 [Example 829] | 420 | – | > 1000
N#CCCn1c(=O)n(-c2cnccn2)c(=O)c2sc(-c3ccccc3C#N)cc21 [Example 830] | 350 | – | > 1000
N#CCCn1c(=O)n(-c2cncc3ccccc23)c(=O)c2sc(-c3cc(F)ccc3Cl)cc21 [Example 831] | 8.53 | 7.19 | –
COc1cc(-c2cc3c(s2)c(=O)n(-c2cncc4ccccc24)c(=O)n3CCC#N)c(Cl)cc1Cl [Example 832] | 7.71 | 7.16 | –
Cc1cncc(-n2c(=O)c3sc(-c4ccccc4Cl)cc3n(CCC#N)c2=O)n1 [Example 833] | 16 | 49.7 | –
Cc1c(Cl)cncc1-n1c(=O)c2sc(-c3ccccc3Cl)cc2n(CCC#N)c1=O [Example 834] | 19.5 | – | 34.2
Cc1cnnc(-n2c(=O)c3sc(-c4ccccc4Cl)cc3n(CCC#N)c2=O)c1 [Example 835] | 9.44 | – | 28.1
COc1cncc(-n2c(=O)c3sc(-c4ccccc4Cl)cc3n(CCC#N)c2=O)c1 [Example 836] | 21.7 | – | 40.5
COc1cnc(C#N)c(-c2cc3c(s2)c(=O)n(-c2cncc4ccccc24)c(=O)n3CCC#N)c1 [Example 837, 3-(1-(2-cyanoethyl)-3-(isoquinolin-4-yl)-2,4-dioxo-1,2,3,4-tetrahydrothieno[3,2-d]pyrimidin-6-yl)-5-methoxypicolinonitrile] | 9.22 | 30.4 | –
COc1cccc(C#N)c1-c1cc2c(s1)c(=O)n(-c1cncc3cnn(C)c13)c(=O)n2CCC#N [Example 838, 2-(1-(2-cyanoethyl)-3-(1-methyl-1H-pyrazolo[4,3-c]pyridin-7-yl)-2,4-dioxo-1,2,3,4-tetrahydrothieno[3,2-d]pyrimidin-6-yl)-3-methoxybenzonitrile] | 32.5 | 115 | –
COc1cccc(C#N)c1-c1cc2[nH]c(=O)n(-c3cncc4cnn(C)c34)c(=O)c2s1 [Example 839, 3-methoxy-2-(3-(1-methyl-1H-pyrazolo[4,3-c]pyridin-7-yl)-2,4-dioxo-1,2,3,4-tetrahydrothieno[3,2-d]pyrimidin-6-yl)benzonitrile] | 91.3 | 463 | –
Cc1ccc(-c2cc3c(s2)c(=O)n(-c2cncc4cnn(C)c24)c(=O)n3CCC#N)c(C#N)c1 [Example 840] | 16.8 | 43.3 | –
Cc1ccc(-c2cc3[nH]c(=O)n(-c4cncc5cnn(C)c45)c(=O)c3s2)c(C#N)c1 [Example 841] | 134 | 523 | –
COc1cc(-c2cc3c(s2)c(=O)n(-c2cncc4nc(C)n(C)c24)c(=O)n3CCC#N)c(Cl)cc1F [Example 842, 3-(6-(2-chloro-4-fluoro-5-methoxyphenyl)-3-(1,2-dimethyl-1H-imidazo[4,5-c]pyridin-7-yl)-2,4-dioxo-3,4-dihydrothieno[3,2-d]pyrimidin-1(2H)-yl)propanenitrile] | 6.66 | 27.5 | –
COc1cc(-c2cc3c(s2)c(=O)n(-c2cncc4ncn(C)c24)c(=O)n3CCC#N)c(Cl)cc1F [Example 843] | 5.43 | 13.2 | –
Cn1cnc2cncc(-n3c(=O)c4sc(-c5ccccc5C#N)cc4n(CCC#N)c3=O)c21 [Example 844] | 65.6 | – | > 1000
COc1cc(-c2cc3c(s2)c(=O)n(-c2cncc4ncn(C)c24)c(=O)n3CCC#N)c(C#N)cc1F [Example 845] | 10 | 388 | –
Cc1c(Cl)cncc1-n1c(=O)c2sc(-c3ccccc3C#N)cc2n(CCC#N)c1=O [Example 846] | 12.5 | – | 37.3
Cc1c(Cl)cncc1-n1c(=O)c2sc(-c3cc(F)c(F)cc3Cl)cc2n(CCC#N)c1=O [Example 847] | 8.09 | – | 19.8
